According to patent US20100305068A1, “COMPOUNDS AND METHODS FOR MODULATING PROTEIN TRAFFICKING” (priority 2006, published 2010):
Where two headings read alike, the source gives them in different places.

Test system: pdr5 ypt1^ts cells
Assay: microbe, parasite or virus in culture
Type: cell-based, yeast
Conditions: for minimal effective concentration: Saccharomyces cerevisiae, lowest concentration tested giving growth above the 0 μM background, read-out: ypt1-ts MRC (minimal rescue concentration); for minimal effective concentration / optical density, ypt1-ts, 0.39 / optical density, ypt1-ts, 0.78 / optical density, ypt1-ts, 1.56 / optical density, ypt1-ts, 3.13 / optical density, ypt1-ts, 6.25 / optical density, ypt1-ts, 12.5 / optical density, ypt1-ts, 25: Table 2; for optical density, ypt1-ts, 0.39: 0.39 μM compound; for optical density, ypt1-ts, 0.39 / optical density, ypt1-ts, 0.78 / optical density, ypt1-ts, 1.56 / optical density, ypt1-ts, 3.13 / optical density, ypt1-ts, 6.25 / optical density, ypt1-ts, 12.5 / optical density, ypt1-ts, 25: background (0 μM) 0.058; for optical density, ypt1-ts, 0.78: 0.78 μM compound; for optical density, ypt1-ts, 1.56: 1.56 μM compound; for optical density, ypt1-ts, 3.13: 3.13 μM compound; for optical density, ypt1-ts, 6.25: 6.25 μM compound; for optical density, ypt1-ts, 12.5: 12.5 μM compound; for optical density, ypt1-ts, 25: 25 μM compound
Outline: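 Whole-cell yeast growth-rescue screen: pdr5 ypt1^ts cells (efflux pump inactivated), growth-arrested at 37° C., cultured with compounds at 37° C. Restoration of growth read by optical density.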

[1] = Table 3, 3.13 uM compound, 37° C., background (0 uM) 0.077
[2] = Table 3, 12.5 uM compound, 37° C., background (0 uM) 0.077
[3] = Table 3, 50 uM compound, 37° C., background (0 uM) 0.077

Row | SMILES | minimal effective concentration (37° C.) [µM] | optical density, ypt1-ts, 0.39 (37° C.) | optical density, ypt1-ts, 0.78 (37° C.) | optical density, ypt1-ts, 1.56 (37° C.) | optical density, ypt1-ts, 3.13 (37° C.) | optical density, ypt1-ts, 6.25 (37° C.) | optical density, ypt1-ts, 12.5 (37° C.) | optical density, ypt1-ts, 25 (37° C.) | optical density, 3.13 uM [1] | optical density, 12.5 uM [2] | optical density, 50 uM [3] | optical density, 3.13 uM | optical density, 12.5 uM | optical density, 50 uM
1 | O=C([O-])Cc1ccccc1Nc1c(Cl)cccc1Cl.[Na+] [DICLOFENAC SODIUM, reference compound] | 12.5 | 0.085 | 0.072 | 0.077 | 0.089 | 0.092 | 0.126 | 0.242 |  |  |  |  |  | 
2 | C/C=C(/C(=C/C)c1ccc(O)cc1)c1ccc(O)cc1 [DIENESTROL, reference compound] |  |  |  |  |  |  |  |  | 0.142 | 0.309 | 0.044 |  |  | 
3 | CC/C(=C(/CC)c1ccc(O)cc1)c1ccc(O)cc1 [DIETHYLSTILBESTROL, reference compound] | 12.5 | 0.089 | 0.076 | 0.091 | 0.108 | 0.103 | 0.163 | 0.162 |  |  |  |  |  | 
4 | CC1(C)C(=O)CC[C@@]2(C)C1C[C@@H](O)[C@@]1(C)C3=CC(=O)O[C@@H](c4ccoc4)[C@]3(C)CCC21 (stereo partly shown) [DIHYDRO- 7- […]- OXYGEDUNIN] |  |  |  |  |  |  |  |  | 0.197 | 0.568 | 0.328 |  |  | 
5 | Cc1c(O)c(O)cc2c1CC=C1[C@@]2(C)CC[C@@]2(C)C3C[C@](C)(C(=O)O)CC[C@]3(C)CC[C@]12C (stereo partly shown) [DIHYDRO- CELASTROL] |  |  |  |  |  |  |  |  | 0.119 | 0.526 | 0.33 |  |  | 
6 | COC(=O)C[C@H]1C(C)(C)[C@@H](OC(C)=O)[C@@H]2CC3C(CC[C@]4(C)C3CC(=O)O[C@H]4c3ccoc3)[C@]1(C)C2=O (stereo partly shown) [DIHYDRO- FISSINOLIDE] |  |  |  |  |  |  |  |  | 0.079 | 0.085 | 0.308 |  |  | 
7 | CC(=O)O[C@@H]1c2c(ccc3ccc(=O)oc23)OC(C)(C)[C@@H]1OC(=O)CC(C)C [DIHYDROSAMIDIN] | 12.5 | 0.091 | 0.068 | 0.079 | 0.105 | 0.097 | 0.14 | 0.221 |  |  |  |  |  | 
8 | COc1ccc(C(=O)c2ccccc2O)c(O)c1 [DIOXY- BENZONE, reference compound] |  |  |  |  |  |  |  |  | 0.088 | 0.12 | 0.579 |  |  | 
9 | CN(C)C(=O)Nc1ccc(Cl)c(Cl)c1 [DIURON] | 25 | 0.082 | 0.073 | 0.087 | 0.081 | 0.095 | 0.101 | 0.132 |  |  |  |  |  | 
10 | COc1ccc2c(c1OC)OC[C@@H](c1ccc(OC)c(OC)c1OC)C2 [DUARTIN, DIMETHYL ETHER] | 3.13 | 0.166 | 0.092 | 0.111 | 0.14 | 0.239 | 0.287 | 0.474 |  |  |  |  |  | 
11 | C[C@]12CCC3C(CC[C@H]4C[C@H](O)CC[C@]34C)C1CC[C@@H]2O (stereo partly shown) [EPIANDROSTANEDIOL] | 12.5 | 0.082 | 0.073 | 0.068 | 0.082 | 0.099 | 0.145 | 0.321 |  |  |  |  |  | 
12 | CCCSP(=O)(OCC)SCCC [ETHOPROP] |  |  |  |  |  |  |  |  |  |  |  | 0.118 | 0.134 | 0.251
13 | CC(=O)O[C@@H]1CC2C(C)(C)C(=O)C=C[C@]2(C)C2CC[C@@]3(C)[C@H](c4ccoc4)OC(=O)[C@H]4O[C@]43[C@@]21C (stereo partly shown) [GEDUNIN] |  |  |  |  |  |  |  |  | 0.109 | 0.231 | 0.183 |  |  | 
14 | Cc1ccc(C)c(OCCCC(C)(C)C(=O)O)c1 [GEMFIBROZIL, reference compound] | 3.13 | 0.106 | 0.082 | 0.1 | 0.219 | 0.442 | 0.615 | 0.358 |  |  |  |  |  | 
15 | COc1ccc2c(c1)O[C@H]1c3ccc(OC)cc3OC[C@@H]21 [HOMOPTEROCARPIN] | 25 | 0.083 | 0.064 | 0.065 | 0.071 | 0.09 | 0.117 | 0.44 |  |  |  |  |  | 
16 | CC(C)c1c(O)ccc2c1CCC1[C@@](C)(CO)CCC[C@]21C (stereo partly shown) [HYDROXY (19)TOTAROL] | 12.5 | 0.098 | 0.076 | 0.085 | 0.106 | 0.125 | 0.407 | 0.515 |  |  |  |  |  | 
17 | CCOC(=O)c1c(C)cc(O)c(C=O)c1O [H[…], ETHYL ESTER] | 3.13 | 0.104 | 0.078 | 0.105 | 0.135 | 0.204 | 0.621 | 0.645 |  |  |  |  |  | 
18 | CC(C)=CCOc1c2occc2cc2ccc(=O)oc12 [IMPERATORIN] | 12.5 | 0.084 | 0.064 | 0.066 | 0.073 | 0.082 | 0.147 | 0.244 |  |  |  |  |  | 
19 | COc1ccc(-c2coc3c(OC)c(OC)cc(O)c3c2=O)cc1 [ISO- TECTORIGENIN, 7-METHYL ETHER] |  |  |  |  |  |  |  |  | 0.09 | 0.147 | 0.595 |  |  | 
20 | COc1ccc(C2CC(=O)c3ccc(OC)cc3O2)cc1 (stereo not shown) [LIQUIRITI- GENIN DIMETHYL ETHER] |  |  |  |  |  |  |  |  | 0.086 | 0.13 | 0.364 |  |  | 
21 | CCOC(=O)N1CCC(=C2c3ccc(Cl)cc3CCc3cccnc32)CC1 [LORATADINE, reference compound] | 25 |  |  |  |  |  |  |  |  |  |  |  |  | 
22 | Oc1ccc2c(c1)OCC1c3cc4c(cc3OC21)OCO4 (stereo not shown) [MAACKIAIN] | 25 | 0.084 | 0.073 | 0.076 | 0.103 | 0.09 | 0.104 | 0.209 |  |  |  |  |  | 
23 | CC(=O)[C@H]1CCC2C3C[C@H](C)C4=CC(=O)CC[C@]4(C)C3[C@@H](O)C[C@@]21C (stereo partly shown) [MEDRY- SONE, reference compound] |  |  |  |  |  |  |  |  | 0.114 | 0.165 | 0.266 |  |  | 
